Measurements: patent publication US20030138476A1, “Use of glutamate and/or a glutamate precursor for the preparation of a nutritional or pharmaceutical preparation for the treatment or prevention of hyperpermeability or undesired permeability of the intestinal wall” (priority 2000, published 2003)

Legend:
HT-29CL.19A cells [1] = test: Transepithelial (apical to basolateral) HRP permeability of HT-29CL.19A monolayers, hyperpermeability induced by PDB; format: cell-based, human; conditions: PDB 1 mmol/l
Excerpt: The macromolecular permeability of the intestinal epithelium is controlled by the passage through intercellular tight junctions in the paracellular channels. Opening of these tight junctions is controlled by the epithelial cells in response to various intercellular mediators, such as Ca, cyclic AMP, G proteins and protein kinase c. The human intestinal cell line HT-29CL.19A is becoming increasingly more important for studying this paracellular permeability in vitro. See also the abovementioned article in J. Parenteral Enteral Nutrition, that is incorporated herein by reference.
For the present examples, confluent monolayers of HT-29CL19A cells were cultured on permeability filters. […] The transepithelial permeability from apical to basolateral was determined for horseradish peroxidase (HRP) with the aid of an enzyme assay. Phorbol 12,13-dibutyrate (PDB, 1 mmol/l) was used to increase the permeability. […] All agents were added to the apical compartment.

[2] = cited from earlier work
HT-29CL.19A cells [3] = conditions: Kouznetsova et al. J. Parenteral Enteral Nutrition 23 (1999) 136-139; cited from earlier work

In the case of `N[C@H](C(=O)O)[C@@H]1CC(Cl)=NO1` [Acivicin, acivicin], the “effect of acivicin on the reduction in PDB-induced hyperpermeability in the presence of glutamate” value (HT-29CL.19A cells [1]; in the presence of glutamate) is reported as “This effect did not occur” and the “effect of acivicin on the glutamine-mediated reduction in PDB-induced hyperpermeability” value (HT-29CL.19A cells [1]; in the presence of glutamine) is reported as “prevented the glutamine-mediated reduction in the hyperpermeability”.
In the case of `N[C@@H](CCC(=O)O)C(=O)O` [Glutamate, glutamate], the “effect on PDB-induced hyperpermeability (HRP flux)” value (from here on “effect … (HRP flux)”) (HT-29CL.19A cells [1]; glutamate 0.6 mmol/l, apical, p<0.001) is reported as “had the same effect” and the “effect … (HRP flux)” value (HT-29CL.19A cells [1]; glutamate 0.6 mmol/l, apical, p<0.001, listed as glutamate) is reported as “reduces the macromolecular hyperpermeability”.
For `NC(=O)CC[C@H](N)C(=O)O` [Glutamine, glutamine], the “effect … (HRP flux)” value (HT-29CL.19A cells [1]; glutamine added to apical compartment) is listed as “reduces this hyperpermeability appreciably”, the solubility [2] is listed as “poor solubility” and the “effect on macromolecular hyperpermeability of intestinal cells induced by phorbol 12,13-dibutyrate” value (HT-29CL.19A cells [3]) is listed as “able to lower the macromolecular hyperpermeability”.
In the case of `CCCC(=O)O[C@@H]1[C@@H](C)[C@@]2(O)[C@@H](C=C(CO)C[C@]3(O)C(=O)C(C)=C[C@@H]23)[C@@H]2C(C)(C)[C@]12OC(=O)CCC` [PDB, Phorbol 12,13-dibutyrate], the “increase of HRP flux compared with the control” value (HT-29CL.19A cells [1]; apical, after 150-279 min stimulation, p<0.001) is reported as 3 fold.
